Assay results as given in patent US6875865B1, “Selected derivatives of K-252a” (Cephalon, Inc., priority 1996, dated 2005).

system: basal forebrain cultures; experiment: Basal Forebrain ChAT Activity Assay; assay type: cell-based, rat; conditions: day six, concentration not given, tested between 10 nM and 500 nM, at least 120% of control = active
Procedure: Compounds of the invention were assessed for their ability to promote survival and increase in ChAT activity in basal forebrain cultures. ChAT activity in these cultures is a biochemical marker for the cholinergic neurons (less than 5% of the cells in culture), which represent the major cholinergic input to the hippocampal formation, olfactory nucleus, interpeduncular nucleus, cortex, amygdala, and parts of the thalamus. […] The basal forebrain was dissected from embryonic day 17 or 18 rat embryos and the cells were […] with Dispase™ (neutral protease, Collaborative Research). Neurons were plated at 5×10^4 cells/well (1.5×10^5 cells/cm^2) in wells of 96-well plates previously coated with […] and laminin. Cells were cultured in serum-free N2 medium containing 0.05% bovine serum albumin (BSA) (Bottenetein et al., supra) at 37° in a humidified atmosphere of 5% CO2/95% air. ChAT activity was measured in vitro at day six, using a modification of the Formum procedure (supra) according to McManaman et al. (supra) and Glicksman et al. (J. Neurochem. 61:210-221, 1993).
(§1) Compounds which increased ChAT activity at least 120% of the control activity are considered active.

SMILES	ChAT Activity maximum efficacy % of Control (conc)
COC(=O)C1(O)CC2OC1(C)n1c3ccc(C(=O)CSc4ncccn4)cc3c3c4c(c5c6cc(C(=O)CSc7ncccn7)ccc6n2c5c31)C(=O)NC4 (stereo not drawn) [Compound 49]	<120 % of Control
COC(=O)C1(O)CC2OC1(C)n1c3ccc(CCI)cc3c3c4c(c5c6cc(CCI)ccc6n2c5c31)C(=O)NC4 (stereo not drawn) [Compound 70a]	<120 % of Control
COC(=O)C1(O)CC2OC1(C)n1c3ccc(CCN4CCCCC4)cc3c3c4c(c5c6cc(CCN7CCCCC7)ccc6n2c5c31)C(=O)NC4 (stereo not drawn) [Compound 75]	<120 % of Control
COC(=O)C1(O)CC2OC1(C)n1c3ccc(CCN4CCOCC4)cc3c3c4c(c5c6cc(CCN7CCOCC7)ccc6n2c5c31)C(=O)NC4 (stereo not drawn) [Compound 76]	<120 % of Control
COC(=O)C1(O)CC2OC1(C)n1c3ccc(CCN(C)CCO)cc3c3c4c(c5c6cc(CCN(C)CCO)ccc6n2c5c31)C(=O)NC4 (stereo not drawn) [Compound 78]	<120 % of Control
CNCCc1ccc2c(c1)c1c3c(c4c5cc(CCNC)ccc5n5c4c1n2C1CC(O)(C(=O)OC)C5(C)O1)CNC3=O (stereo not drawn) [Compound 79]	<120 % of Control
COC(=O)C1(O)CC2OC1(C)n1c3ccc(CCNCc4ccc(OC)cc4)cc3c3c4c(c5c6cc(CCNCc7ccc(OC)cc7)ccc6n2c5c31)C(=O)NC4 (stereo not drawn) [Compound 80]	<120 % of Control
COC(=O)C1(O)CC2OC1(C)n1c3ccc(CCCN4CCOCC4)cc3c3c4c(c5c6cc(CCCN7CCOCC7)ccc6n2c5c31)C(=O)NC4 (stereo not drawn) [Compound 83]	<120 % of Control
CCN(CC)CCCc1ccc2c(c1)c1c3c(c4c5cc(CCCN(CC)CC)ccc5n5c4c1n2C1CC(O)(C(=O)OC)C5(C)O1)CNC3=O (stereo not drawn) [Compound 84]	<120 % of Control
COC(=O)CSCCc1ccc2c(c1)c1c3c(c4c5cc(CCSCC(=O)OC)ccc5n5c4c1n2C1CC(O)(C(=O)OC)C5(C)O1)CNC3=O (stereo not drawn) [Compound 89]	<120 % of Control
CCOC(=O)CCSCCc1ccc2c(c1)c1c3c(c4c5cc(CCSCCC(=O)OCC)ccc5n5c4c1n2C1CC(O)(C(=O)OC)C5(C)O1)CNC3=O (stereo not drawn) [Compound 90]	<120 % of Control
COC(=O)C1(O)CC2OC1(C)n1c3ccc(CCSc4ccncc4)cc3c3c4c(c5c6cc(CCSc7ccncc7)ccc6n2c5c31)C(=O)NC4 (stereo not drawn) [Compound 93]	<120 % of Control
COC(=O)C1(O)CC2OC1(C)n1c3ccc(CCCSc4nc5ccccc5s4)cc3c3c4c(c5c6cc(CCCSc7nc8ccccc8s7)ccc6n2c5c31)C(=O)NC4 (stereo not drawn) [Compound 96]	<120 % of Control
COC(=O)C1(O)CC2OC1(C)n1c3ccc(COCCN(C)C)cc3c3c4c(c5c6cc(C=Cc7ccccn7)ccc6n2c5c31)C(=O)NC4 (stereo not drawn) [Compound 104]	<120 % of Control

same assay, conditions: day six, maximum efficacy at 50 nM

SMILES	ChAT Activity maximum efficacy % of Control (conc)
COC(=O)C1(O)CC2OC1(C)n1c3ccccc3c3c4c(c5c6cc(C#CCN(C)C)ccc6n2c5c31)C(=O)NC4 (stereo not drawn) [Compound 61]	166 (50 nM) % of Control
COCc1ccc2c(c1)c1c3c(c4c5cc(C=Cc6ccccn6)ccc5n5c4c1n2C1(C)OC5CC1(O)C(=O)OC)C(=O)NC3 (stereo not drawn) [Compound 102]	176 (50 nM) % of Control
CCOCc1ccc2c(c1)c1c3c(c4c5cc(C=Cc6ccccn6)ccc5n5c4c1n2C1(C)OC5CC1(O)C(=O)OC)C(=O)NC3 (stereo not drawn) [Compound 103]	154 (50 nM) % of Control
CCSCc1ccc2c(c1)c1c3c(c4c5cc(C=Cc6ccccn6)ccc5n5c4c1n2C1(C)OC5CC1(O)C(=O)OC)C(=O)NC3 (stereo not drawn) [Compound 105]	136 (50 nM) % of Control

same assay, conditions: day six, maximum efficacy at 250 nM

SMILES	ChAT Activity maximum efficacy % of Control (conc)
COC(=O)C1(O)CC2OC1(C)n1c3ccc(C(=O)CSc4ccncc4)cc3c3c4c(c5c6ccccc6n2c5c31)C(=O)NC4 (stereo not drawn) [Compound 42b]	164 (250 nM) % of Control
COC(=O)C1(O)CC2OC1(C)n1c3ccc(C=CCN(C)C)cc3c3c4c(c5c6cc(C=CCN(C)C)ccc6n2c5c31)C(=O)NC4 (stereo not drawn) [Compound 64]	165 (250 nM) % of Control
COC(=O)C1(O)CC2OC1(C)n1c3ccc(CCCOC=O)cc3c3c4c(c5c6cc(CCCOC=O)ccc6n2c5c31)C(=O)NC4 (stereo not drawn) [Compound 73b]	171 (250 nM) % of Control
COC(=O)C1(O)CC2OC1(C)n1c3ccc(CCCO)cc3c3c4c(c5c6cc(CCCO)ccc6n2c5c31)C(=O)NC4 (stereo not drawn) [Compound 73c]	190 (250 nM) % of Control
CCN(CC)CCc1ccc2c(c1)c1c3c(c4c5cc(CCN(CC)CC)ccc5n5c4c1n2C1CC(O)(C(=O)OC)C5(C)O1)CNC3=O (stereo not drawn) [Compound 77]	132 (250 nM) % of Control
COC(=O)C1(O)CC2OC1(C)n1c3ccc(CCCN4CCCCC4)cc3c3c4c(c5c6cc(CCCN7CCCCC7)ccc6n2c5c31)C(=O)NC4 (stereo not drawn) [Compound 82]	150 (250 nM) % of Control
COC(=O)C1(O)CC2OC1(C)n1c3ccc(CSCCN(C)C)cc3c3c4c(c5c6cc(C=Cc7ccccn7)ccc6n2c5c31)C(=O)NC4 (stereo not drawn) [Compound 106]	135 (250 nM) % of Control

system: dissociated spinal cord cultures; experiment: Spinal Cord ChAT Activity Assay; assay type: cell-based, rat; conditions: concentration not given, at least 120% of control = active
Procedure: The effect of selected ring substituted K-252a derivatives on CHAT activity was assayed in dissociated spinal cord cultures prepared from fetal rats using the procedure described in U.S. Pat. No. 5,461,146, Columns 26 and 27, Examples 6 and 7. ChAT is the enzyme that catalyzes the synthesis of the neurotransmitter acetylcholine, and it is a specific biochemical marker for cholinergic neurons. In the spinal cord, the large majority of cholinergic neurons are motor neurons. Assay of this enzyme may thus be used as an indication of the effects of a factor, or actors, on the survival of cholinergic neurons and/or regulation of this enzyme.
as §1

SMILES	ChAT Activity maximum efficacy % of Control (conc)
COC(=O)CCc1ccc2c(c1)c1c3c(c4c5cc(CCC(=O)OC)ccc5n5c4c1n2C1CC(O)(C(=O)OC)C5(C)O1)CNC3=O (stereo not drawn) [Compound 139]	<120 % of Control

same assay, conditions: maximum efficacy at 30 nM

SMILES	ChAT Activity maximum efficacy % of Control (conc)
COC(=O)C=Cc1ccc2c(c1)c1c3c(c4c5cc(C=CC(=O)OC)ccc5n5c4c1n2C1CC(O)(C(=O)OC)C5(C)O1)CNC3=O (stereo not drawn) [Compound 1]	153 (30 nM) % of Control
COCc1ccc2c(c1)c1c3c(c4c5cc(C=Cc6ccccn6)ccc5n5c4c1n2C1CC(O)(C(=O)OC)C5(C)O1)CNC3=O (stereo not drawn) [Compound 116]	231 (30 nM) % of Control
CCOCc1ccc2c(c1)c1c3c(c4c5cc(C=Cc6ccccn6)ccc5n5c4c1n2C1CC(O)(C(=O)OC)C5(C)O1)CNC3=O (stereo not drawn) [Compound 117]	232 (30 nM) % of Control
CCSCc1ccc2c(c1)c1c3c(c4c5cc(C=Cc6ccccn6)ccc5n5c4c1n2C1CC(O)(C(=O)OC)C5(C)O1)CNC3=O (stereo not drawn) [Compound 118]	249 (30 nM) % of Control
COC(=O)C1(O)CC2OC1(C)n1c3ccc(C=Cc4ccccn4)cc3c3c4c(c5c6cc(CSc7ccccn7)ccc6n2c5c31)C(=O)NC4 (stereo not drawn) [Compound 119]	272 (30 nM) % of Control

same assay, conditions: maximum efficacy at 300 nM

SMILES	ChAT Activity maximum efficacy % of Control (conc)
COC(=O)C1(O)CC2OC1(C)n1c3ccc(CCOC=O)cc3c3c4c(c5c6cc(CCOC=O)ccc6n2c5c31)C(=O)NC4 (stereo not drawn) [Compound 70b]	169 (300 nM) % of Control
COC(=O)C1(O)CC2OC1(C)n1c3ccc(C=Cc4ccccn4)cc3c3c4c(c5c6cc(CSc7nc8ccccc8[nH]7)ccc6n2c5c31)C(=O)NC4 (stereo not drawn) [Compound 120]	257 (300 nM) % of Control
CCC=Cc1ccc2c(c1)c1c3c(c4c5cc(C=Cc6ccccn6)ccc5n5c4c1n2C1CC(O)(C(=O)OC)C5(C)O1)CNC3=O (stereo not drawn) [Compound 122]	279 (300 nM) % of Control
CCOC(=O)CCc1ccc2c(c1)c1c3c(c4c5cc(CCC(=O)OCC)ccc5n5c4c1n2C1CC(O)(C(=O)OC)C5(C)O1)CNC3=O (stereo not drawn) [Compound 140]	156 (300 nM) % of Control
COC(=O)C1(O)CC2OC1(C)n1c3ccc(C=Cc4ccccn4)cc3c3c4c(c5c6cc(Br)ccc6n2c5c31)C(=O)NC4 (stereo not drawn) [Compound 142]	223 (300 nM) % of Control
COC(=O)C1(O)CC2OC1(C)n1c3ccc(CCc4ccccn4)cc3c3c4c(c5c6cc(Br)ccc6n2c5c31)C(=O)NC4 (stereo not drawn) [Compound 143]	264 (300 nM) % of Control
COC(=O)C1(O)CC2OC1(C)n1c3ccc(C=Cc4ccncc4)cc3c3c4c(c5c6cc(C=Cc7ccncc7)ccc6n2c5c31)C(=O)NC4 (stereo not drawn) [Compound 145]	129 (300 nM) % of Control
COC(=O)C1(O)CC2OC1(C)n1c3ccc(CCc4ccncc4)cc3c3c4c(c5c6cc(CCc7ccncc7)ccc6n2c5c31)C(=O)NC4 (stereo not drawn) [Compound 146]	153 (300 nM) % of Control
COC(=O)C1(O)CC2OC1(C)n1c3ccccc3c3c4c(c5c6cc(C=Cc7ncc[nH]7)ccc6n2c5c31)C(=O)NC4 (stereo not drawn) [Compound 148]	206 (300 nM) % of Control
COCOCc1ccc2c(c1)c1c3c(c4c5ccccc5n5c4c1n2C1CC(O)(C(=O)OC)C5(C)O1)CNC3=O (stereo not drawn) [Compound 154]	177 (300 nM) % of Control
COCOCc1ccc2c(c1)c1c3c(c4c5cc(COCOC)ccc5n5c4c1n2C1CC(O)(C(=O)OC)C5(C)O1)CNC3=O (stereo not drawn) [Compound 155]	197 (300 nM) % of Control
